Assay results: patent US6762029B2, “Methods of identifying agents that modulate P2Y12 receptor activity” (Portola Pharmaceuticals, Inc., priority 1999, dated 2004)
Blank lines part the entries; values can stand above or below the molecule they belong to.

Key:
hP2Y12 [1] = biological target: T1, hP2Y12 (Homo sapiens, UniProt Q9H244); experiment: Two-electrode voltage-clamp of Xenopus oocytes expressing hP2Y12 with Kir3.1 and 3.4: inhibition of ADP-stimulated potassium currents; type: cell-based
T1 construct: expressed in transfected cells; host or cells: Xenopus laevis oocytes injected with hP2Y12 cRNA (50 pg) plus Kir3.1 and Kir3.4 cRNAs
T1 sequence (Q9H244 whole entry): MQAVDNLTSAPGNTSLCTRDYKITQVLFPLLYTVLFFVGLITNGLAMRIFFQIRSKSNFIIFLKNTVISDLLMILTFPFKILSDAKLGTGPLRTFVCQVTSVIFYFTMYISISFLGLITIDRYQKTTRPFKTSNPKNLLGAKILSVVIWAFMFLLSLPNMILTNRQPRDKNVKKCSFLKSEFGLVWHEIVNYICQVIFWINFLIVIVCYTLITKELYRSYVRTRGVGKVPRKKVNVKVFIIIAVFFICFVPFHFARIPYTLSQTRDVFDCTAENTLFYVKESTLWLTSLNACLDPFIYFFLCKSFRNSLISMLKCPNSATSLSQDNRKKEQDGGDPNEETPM
Procedure: (§1) Defolliculated Xenopus laevis oocytes were injected with a positive 500 clone pool (10 ng), rP2Y12 (10 pg), hP2Y12 (50 pg), Kir3.1, Kir3.4, PTX and hm2 (1 ng each) cRNAs as indicated. Three to seven days after injection, two-electrode voltage-clamp recordings were performed using a Geneclamp 500 amplifier (Axon Instruments) and a Maclab A/D converter (Maclab). Membrane potentials were clamped at −70 mV while the recording chamber was perfused at a rate of 2 ml/min with a solution containing (in mM) 70 KCl, 20 NaCl, 3 MgCl2, 5 HEPES, pH 7.4, at room temperature. The KCl was replaced with NaCl to examine responses in zero potassium. Agonists and antagonists (Roche Molecular Biochemistry or Sigma) were diluted in the recording solution. Experiments using C1330-7 included 0.1% dimethylsulfoxide to enhance its solubility in the perfusate.
(§2) FIG. 2(A). […] The dot (.) indicates the start of a 15 sec application of ADP, while bars denote co-application with the antagonist. (B) 2MeSAMP and C1330-7 inhibition curves. Current responses were normalized to that elicited by ADP (500 nM) alone in each oocyte and plotted as the mean+/−s.d. Curves were fitted to the data using the Hill equation (n=5 independent oocytes for each point). (C) Selective ablation of P2Y12 but not m2 muscarinic receptor signaling by the thiol reagent pCMBS. ADP (10 μM), carbachol (1 μM), and pCMBS (1 mM) were applied sequentially to an oocyte expressing both receptors concurrently with Kir3.1 and 3.4. Bars indicate periods of drug application (10 sec).

m2 muscarinic receptor = biological target: T2, m2 muscarinic receptor (Homo sapiens, UniProt P08172); experiment: Carbachol-activated Kir3.1/3.4 currents via m2 muscarinic receptor in the same oocytes; type: cell-based; conditions: 1 mM, carbachol 1 μM, FIG. 2C
T2 construct: expressed in transfected cells; host or cells: Xenopus laevis oocytes injected with hm2 cRNA (1 ng) together with hP2Y12, Kir3.1 and Kir3.4
T2 sequence (P08172 1-466): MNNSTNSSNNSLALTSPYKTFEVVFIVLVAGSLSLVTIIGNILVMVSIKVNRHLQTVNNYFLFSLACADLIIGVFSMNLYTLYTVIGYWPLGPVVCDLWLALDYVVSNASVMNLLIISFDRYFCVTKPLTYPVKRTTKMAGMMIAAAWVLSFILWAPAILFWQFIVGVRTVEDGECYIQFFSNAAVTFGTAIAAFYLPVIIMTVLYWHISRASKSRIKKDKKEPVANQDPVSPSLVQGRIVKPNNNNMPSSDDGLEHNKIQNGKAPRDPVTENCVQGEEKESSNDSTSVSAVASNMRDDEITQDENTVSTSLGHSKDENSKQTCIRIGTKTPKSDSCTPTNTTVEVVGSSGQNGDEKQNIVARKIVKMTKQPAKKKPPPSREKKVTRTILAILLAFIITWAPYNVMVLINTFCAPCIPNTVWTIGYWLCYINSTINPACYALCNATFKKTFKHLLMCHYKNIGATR
Procedure: as §1
as §2, with “ADP (10 μM), carbachol (1 μM), and pCMBS (1 mM) were applied sequentially to an oocyte expressing both receptors concurrently with Kir3.1 and 3.4. Bars indicate periods of drug application (10 sec).” left out

P2Y12 receptor [2] = biological target: T3, P2Y12 receptor (UniProt Q9H244); experiment: Two-electrode voltage-clamp of Xenopus oocytes expressing P2Y12 with Kir3.1 and 3.4: agonist-stimulated potassium currents; type: cell-based; conditions: FIG. 1C; for EC50: Xenopus oocytes with Kir3.1 and 3.4, currents normalized to 10 μM ADP, Hill fit
T3 construct: EC50, potassium currents in oocytes; other: Xenopus oocytes with Kir3.1 and 3.4; currents normalized to 10 μM ADP; Hill; potency compared to ADP
Procedure: as §1
(§3) FIG. 1(A). Activation of potassium-dependent currents in Xenopus oocytes expressing P2Y12 with Kir3.1 and 3.4. ADP (10 μM) was applied (short bars) in the presence or absence (long bar) of extracellular potassium (70 mM) while recording membrane currents in the whole-cell voltage clamp configuration. […] (B) ADP-selective stimulation of potassium channel-dependent currents by P2Y12 occurs via a pertussis toxin-sensitive pathway. UDP, adenosine (A), ATP-α-S or ADP (10 μM each) were sequentially applied to oocytes expressing the rat or human receptor with or without Kir3.1, 3.4 and pertussis toxin (PTX). (C) The agonist profile of P2Y12 recapitulates that observed for the Gi-coupled platelet ADP receptor. Concentration-response curves for ADP and 2MeSADP are presented. Membrane currents were normalized in each oocyte to a response obtained with 10 μM ADP. Each point represents the mean values (+/−s.d.) from five independent oocytes. The Hill equation was used to fit the response data.

hP2Y12 [3] = biological target: T1, hP2Y12; experiment: Forskolin-stimulated cAMP accumulation in CHO cells stably expressing hP2Y12; type: cell-based
Procedure: Chinese Hamster Ovary (CHO) cells or rat 2-9 fibroblasts, which are null for Gi-linked purinergic receptors, were transfected with hP2Y12 or rP2Y12 cDNA's, respectively using FuGene reagent (Roche), and cells were cultured in the presence of G418 for 2 weeks to select for stable transfectants. For cAMP assays, stably transfected CHO cells expressing the hP2Y12 plasmid were plated in 12-well dishes. Forty-eight hours later media was removed from the cells and replaced with serum-free media containing IBMX (0.25 mM final) and incubated at 37° C. for 5 minutes. Cells were incubated for an additional 5 min with 10 μM forskolin, as well as the indicated agonists and antagonists. Pertussis toxin treatment (30 ng/ml) occurred for 20 hrs at 37° C. prior to assay. Cyclic AMP levels were determined from aliquots of cell extracts in a radioimmunoassay (Amersham Biotrak cAMP ^125I assay system).
FIG. 3(A). Receptor coupling to adenylyl cyclase was assessed as ADP-mediated (0.1-10 μM) inhibition of forskolin-stimulated (10 μM) cAMP accumulation (CON=control, normalized to 100%). (B) The effect of the specific antagonists 2MeSAMP (2-MES)(50 μM) and C1330-7 (50 μM) on repression of ADP-mediated (1 μM) forskolin-stimulated cAMP levels. (C) Effect of pertussis toxin (PTX) pretreatment on the inhibition by 10 μM ADP of forskolin-stimulated cAMP levels. Results are the mean+/−s.d. of three representative experiments performed in triplicate.

rat P2Y12 = biological target: T4, rat P2Y12 (Rattus norvegicus, UniProt Q9EPX4); experiment: Two-electrode voltage-clamp of Xenopus oocytes expressing rat P2Y12: inhibition of ADP-evoked signal; type: cell-based
T4 construct: expressed in transfected cells; host or cells: Xenopus laevis oocytes injected with rP2Y12 cRNA (10 pg) plus Kir3.1 and Kir3.4 cRNAs
T4 sequence (Q9EPX4 whole entry): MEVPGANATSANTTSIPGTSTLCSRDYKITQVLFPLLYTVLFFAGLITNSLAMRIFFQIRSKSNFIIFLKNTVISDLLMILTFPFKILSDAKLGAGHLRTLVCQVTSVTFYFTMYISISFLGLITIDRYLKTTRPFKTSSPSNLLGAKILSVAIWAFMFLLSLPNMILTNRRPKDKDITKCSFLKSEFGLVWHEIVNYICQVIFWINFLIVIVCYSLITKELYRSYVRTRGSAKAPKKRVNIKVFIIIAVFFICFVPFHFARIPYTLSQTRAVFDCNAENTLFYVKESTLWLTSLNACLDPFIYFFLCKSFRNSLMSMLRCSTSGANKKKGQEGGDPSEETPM
Procedure: as §1

hP2Y12 [4] = biological target: T1, hP2Y12; experiment: [3H]2MeSADP binding to membranes of COS7 cells transiently transfected with hP2Y12 (rapid filtration); conditions: 4 C, 30 minutes
Procedure: hP2Y12 cDNA was transiently transfected into cos7 cells and crude membranes were prepared using standard procedures. Binding of 1 nM [^3H]2MeSADP at various membrane protein concentrations and in the absence and presence of various inhibitors was determined at 4 C. for 30 minutes in a rapid filtration assay (triplicates). Non-specific binding was determined with 10 uM 2MeSADP and subtracted from all data. Each experiment included membranes from untransfected cells.

P2Y12 receptor [5] = experiment: Two-electrode voltage-clamp of Xenopus oocytes expressing P2Y12 with Kir3.1 and 3.4: agonist-stimulated potassium currents; type: cell-based; conditions: 10 μM each, FIG. 1B
Procedure: as §1, §3

Molecule: O=S(=O)(O)c1cc[c]([Hg][Cl])cc1 [pCMBS, p-chloromercuriphenylsulfonic acid]
effect on ADP-evoked current responses (hP2Y12 [1]; brief exposure, 1 mM, ADP 10 μM, FIG. 2C): eliminated
effect on activation of the signaling pathway by m2 muscarinic receptors (m2 muscarinic receptor): unaffected

Molecule: Nc1ncnc2c1ncn2[C@@H]1O[C@H](COP(=O)(O)OP(=O)(O)O)[C@@H](O)[C@H]1O [ADP, adenosine 5′-diphosphate]
EC50 (P2Y12 receptor [2]): 300 nM
maximum reduction of forskolin-stimulated cAMP levels (hP2Y12 [3]; 10 μM ADP, 10 μM forskolin, FIG. 3A): 47%

Molecule: CSc1nc(N)c2ncn([C@@H]3O[C@H](COP(=O)(O)O)[C@@H](O)[C@H]3O)c2n1 [2MeSAMP]
block of ADP (1 μM) responses (hP2Y12 [1]; antagonist 10 μM, FIG. 2A): reversible block
IC50 (hP2Y12 [1]; oocytes expressing rat or human P2Y12 (FIG. 2B: hP2Y12), ADP 500 nM, read-out: IC50, block of ADP-induced K+ currents): 1400 nM
effect on repression of cAMP levels by 1 μM ADP (hP2Y12 [3]; antagonist 50 μM, 10 μM forskolin, FIG. 3B): reversed
effect on forskolin-stimulated cAMP levels in the absence of agonist (hP2Y12 [3]; no agonist): Neither of these antagonists had effects
competition of 1 nM [3H]2MeSADP binding to membranes from transfected cells (hP2Y12 [4]; 50 μM): essentially to the level of untransfected cells

Molecule: pertussis toxin
effect of pretreatment on ADP effects on forskolin-stimulated cAMP (hP2Y12 [3]; 30 ng/ml for 20 hrs, 10 μM ADP, FIG. 3C): abolished

Molecule: CSc1nc(N)c2ncn([C@@H]3O[C@H](COP(=O)(O)OP(=O)(O)O)[C@@H](O)[C@H]3O)c2n1 [2MeSADP]
EC50 (P2Y12 receptor [2]): 0.9 nM
potency compared to ADP (P2Y12 receptor [2]; ratio of EC50s): 2 orders of magnitude

The next lines start with the values.

inhibitory effect on the signal evoked by ADP (hP2Y12 [1]; human P2Y12, FIG. 2A): no inhibitory effect
inhibitory effect on the signal evoked by ADP (rat P2Y12): no inhibitory effect
competition of 1 nM [3H]2MeSADP binding to membranes from transfected cells (hP2Y12 [4]; 300 μM): only little effect
Molecule: Nc1ncnc2c1ncn2[C@@H]1O[C@H](COP(=O)(O)O)[C@@H](OP(=O)(O)O)[C@H]1O [A3P5P]

agonist effect on potassium currents (P2Y12 receptor [5]): weak agonist
Molecule: Nc1ncnc2c1ncn2[C@@H]1O[C@H](COP(O)(=S)OP(=O)(O)OP(=O)(O)O)[C@@H](O)[C@H]1O (stereo partly shown) [ATP-αS]
